A word on the IC50: it is the concentration that gives 50% inhibition.

This note sets out measurements from ChEMBL document CHEMBL5696441 (Nat Chem Biol, 2011).

Test [1] has as its target Beta-adrenergic receptor kinase 1 (Homo sapiens) (UniProt P25098). The test can be described thus: Inhibition of human GRK2 assessed as residual activity at 1 uM using casein as substrate in presence of 33P-ATP by ProQinase assay relative to control.
For test [2], the target named is Mitogen-activated protein kinase kinase kinase 13 (Homo sapiens) (UniProt O43283). The test can be described thus: Inhibition of LZK (unknown origin) assessed as remaining activity at 1 uM by Kinome scan method relative to control.
Test [3] is described as follows: Anti-inflammatory activity against human derived high respond PBMC cells assessed as inhibition in stimulated IL-17A cytokine release incubated for 2 hrs in the presence of LPS/SEB/aCD28 by Luminex based sandwich immunoassay. The class given is functional, cell-based.
Test [4] addresses Casein kinase II subunit alpha (Homo sapiens) (UniProt P68400). The test can be described thus: Inhibition of human CK2alpha1 assessed as residual activity at 1 uM using casein as substrate in presence of 33P-ATP by ProQinase assay relative to control.
The target of test [5] is CDK6/cyclin D1 (Homo sapiens) (UniProt P24385+Q00534). The test can be described thus: Inhibition of human CDK6/CycD1 assessed as residual activity at 1 uM using RBER-CHKtide as substrate in presence of 33P-ATP by ProQinase assay relative to control. The class given is protein-complex assay.
The target in test [6] is TAK1/TAB1 (Homo sapiens) (UniProt Q15750+O43318). Kind of test: Inhibition of human MAP3K7/MAP3K7IP1 assessed as residual activity at 1 uM using RB-S6P as substrate in presence of 33P-ATP by ProQinase assay relative to control. The class given is protein-complex assay.
The target of test [7] is Serine/threonine-protein kinase Nek9 (Homo sapiens) (UniProt Q8TD19). The test can be described thus: Inhibition of human NEK9 assessed as residual activity at 1 uM using RBER-GSK3 as substrate in presence of 33P-ATP by ProQinase assay relative to control.
Test [8] has as its target Serine/threonine-protein kinase Chk2 (Homo sapiens) (UniProt O96017). The test can be described thus: Inhibition of CHEK2 (unknown origin) assessed as remaining activity at 1 uM by Kinome scan method relative to control.
The target of test [9] is Tyrosine-protein kinase JAK1 (Homo sapiens) (UniProt P23458). The test can be described thus: Inhibition of JAK1 JH2 domain (unknown origin) assessed as remaining activity at 1 uM by Kinome scan method relative to control.
Test [10] relates to Epidermal growth factor receptor (Homo sapiens), P00533 [T790M]. Kind of test: Inhibition of human EGFR T790M mutant assessed as residual activity at 1 uM using PolyEY as substrate in presence of 33P-ATP by ProQinase assay relative to control.
Test [11] addresses Hepatocyte growth factor receptor (Homo sapiens) (UniProt P08581). Kind of test: Inhibition of MET (unknown origin) assessed as remaining activity at 1 uM by Kinome scan method relative to control.
Test [12] concerns the target Serine/threonine-protein kinase 24 (Homo sapiens) (UniProt Q9Y6E0). Kind of test: Inhibition of human MST3 assessed as residual activity at 1 uM using casein as substrate in presence of 33P-ATP by ProQinase assay relative to control.
Test [13] has as its target Myosin light chain kinase 2, skeletal/cardiac muscle (Homo sapiens) (UniProt Q9H1R3). The test can be described thus: Inhibition of human MYLK2 assessed as residual activity at 1 uM using RB-S6P as substrate in presence of 33P-ATP by ProQinase assay relative to control.
Test [14] concerns the target T1, Tyrosine-protein kinase ITK/TSK (Homo sapiens) (UniProt Q08881).
T1 sequence (whole entry): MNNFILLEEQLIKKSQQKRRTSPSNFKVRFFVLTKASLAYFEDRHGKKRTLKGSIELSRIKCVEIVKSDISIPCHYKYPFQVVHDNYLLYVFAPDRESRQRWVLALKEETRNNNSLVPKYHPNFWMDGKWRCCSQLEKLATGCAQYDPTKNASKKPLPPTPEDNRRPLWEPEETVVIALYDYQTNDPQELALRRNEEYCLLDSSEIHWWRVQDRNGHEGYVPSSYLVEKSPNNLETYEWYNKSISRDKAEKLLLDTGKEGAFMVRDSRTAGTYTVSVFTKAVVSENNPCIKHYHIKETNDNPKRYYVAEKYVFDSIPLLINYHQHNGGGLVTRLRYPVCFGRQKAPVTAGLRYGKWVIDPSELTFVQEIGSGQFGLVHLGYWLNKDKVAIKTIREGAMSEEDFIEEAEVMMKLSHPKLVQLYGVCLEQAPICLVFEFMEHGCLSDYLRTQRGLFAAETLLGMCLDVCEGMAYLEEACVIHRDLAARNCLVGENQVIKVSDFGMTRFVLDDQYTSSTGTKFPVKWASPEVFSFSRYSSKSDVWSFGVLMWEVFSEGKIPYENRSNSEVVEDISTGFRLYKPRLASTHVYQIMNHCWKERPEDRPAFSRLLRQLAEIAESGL
Kind of test: Inhibition of human ITK assessed as residual activity at 1 uM using polyEY as substrate in presence of 33P-ATP by ProQinase assay relative to control.

In test [15] the target is Protein kinase C beta type (Homo sapiens) (UniProt P05771). The test can be described thus: Inhibition of human PKCbeta2 assessed as residual activity at 1 uM using 3xChocktide-PKC as substrate in presence of 33P-ATP by ProQinase assay relative to control.
Test [16] deals with Lymphokine-activated killer T-cell-originated protein kinase (Homo sapiens) (UniProt Q96KB5). The test can be described thus: Inhibition of human PBK assessed as residual activity at 1 uM using histon H1 as substrate in presence of 33P-ATP by ProQinase assay relative to control.
Test [17] concerns Platelet-derived growth factor receptor alpha (Homo sapiens), P16234 [D842V]. The test can be described thus: Inhibition of human PDGFRalpha D842V mutant assessed as residual activity at 1 uM using Poly(Ala,Glu,Lys,Tyr)6:2:5:1 as substrate in presence of 33P-ATP by ProQinase assay relative to control.
Test [18] concerns the target Leukocyte tyrosine kinase receptor (Homo sapiens) (UniProt P29376). The test can be described thus: Inhibition of LTK (unknown origin) assessed as remaining activity at 1 uM by Kinome scan method relative to control.
Test [19] deals with Serine/threonine-protein kinase Sgk3 (Homo sapiens) (UniProt Q96BR1). The test can be described thus: Inhibition of human SGK3 assessed as residual activity at 1 uM using RBER-GSK3(14-27) as substrate in presence of 33P-ATP by ProQinase assay relative to control.
A short description of test [20]: Anti-inflammatory activity against human derived high respond PBMC cells assessed as inhibition in stimulated IL-13 cytokine release incubated for 2 hrs in the presence of LPS/SEB/aCD28 by Luminex based sandwich immunoassay. The class given is functional, cell-based.
In test [21] the target is G protein-coupled receptor kinase 5 (Homo sapiens) (UniProt P34947). Kind of test: Inhibition of human GRK5 assessed as residual activity at 1 uM using casein as substrate in presence of 33P-ATP by ProQinase assay relative to control.
Test [22] concerns the target SRSF protein kinase 3 (Homo sapiens) (UniProt Q9UPE1). The test can be described thus: Inhibition of SRPK3 (unknown origin) assessed as remaining activity at 1 uM by Kinome scan method relative to control.

SRSF protein kinase 3 (Homo sapiens), sequence (Q9UPE1 whole entry): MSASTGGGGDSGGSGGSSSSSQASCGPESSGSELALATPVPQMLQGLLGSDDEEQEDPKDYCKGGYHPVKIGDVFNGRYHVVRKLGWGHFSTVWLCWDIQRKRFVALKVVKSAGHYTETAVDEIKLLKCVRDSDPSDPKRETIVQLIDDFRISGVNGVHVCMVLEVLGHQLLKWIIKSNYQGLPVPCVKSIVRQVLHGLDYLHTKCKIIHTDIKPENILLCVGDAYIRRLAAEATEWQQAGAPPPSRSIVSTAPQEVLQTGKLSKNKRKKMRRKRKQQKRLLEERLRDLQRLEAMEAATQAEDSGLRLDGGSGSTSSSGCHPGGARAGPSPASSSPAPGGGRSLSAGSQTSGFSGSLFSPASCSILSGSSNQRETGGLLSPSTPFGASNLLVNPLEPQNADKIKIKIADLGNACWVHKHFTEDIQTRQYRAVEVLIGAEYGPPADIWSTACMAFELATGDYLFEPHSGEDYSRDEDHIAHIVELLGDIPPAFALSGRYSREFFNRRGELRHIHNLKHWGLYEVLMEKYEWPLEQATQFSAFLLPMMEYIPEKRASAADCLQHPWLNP
Protein kinase C beta type (Homo sapiens), sequence (P05771 2-671 limits assumed): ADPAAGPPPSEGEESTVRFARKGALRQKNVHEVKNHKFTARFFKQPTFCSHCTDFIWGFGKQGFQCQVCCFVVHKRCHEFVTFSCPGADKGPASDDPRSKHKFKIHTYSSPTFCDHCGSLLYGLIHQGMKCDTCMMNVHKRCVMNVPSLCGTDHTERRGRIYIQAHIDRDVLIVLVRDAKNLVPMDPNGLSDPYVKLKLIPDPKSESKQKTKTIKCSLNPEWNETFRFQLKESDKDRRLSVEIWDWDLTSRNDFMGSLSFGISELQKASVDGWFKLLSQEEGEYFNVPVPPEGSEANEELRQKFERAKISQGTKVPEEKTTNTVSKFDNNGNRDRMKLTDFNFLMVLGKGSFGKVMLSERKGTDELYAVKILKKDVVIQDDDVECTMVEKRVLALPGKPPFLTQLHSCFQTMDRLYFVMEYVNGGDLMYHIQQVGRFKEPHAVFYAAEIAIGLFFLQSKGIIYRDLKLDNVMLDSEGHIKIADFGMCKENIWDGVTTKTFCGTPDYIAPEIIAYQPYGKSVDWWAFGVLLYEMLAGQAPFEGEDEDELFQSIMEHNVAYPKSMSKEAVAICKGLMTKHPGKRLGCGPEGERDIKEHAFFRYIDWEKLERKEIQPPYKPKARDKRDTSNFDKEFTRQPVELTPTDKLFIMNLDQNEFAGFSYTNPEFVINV
Lymphokine-activated killer T-cell-originated protein kinase (Homo sapiens), sequence (Q96KB5 whole entry): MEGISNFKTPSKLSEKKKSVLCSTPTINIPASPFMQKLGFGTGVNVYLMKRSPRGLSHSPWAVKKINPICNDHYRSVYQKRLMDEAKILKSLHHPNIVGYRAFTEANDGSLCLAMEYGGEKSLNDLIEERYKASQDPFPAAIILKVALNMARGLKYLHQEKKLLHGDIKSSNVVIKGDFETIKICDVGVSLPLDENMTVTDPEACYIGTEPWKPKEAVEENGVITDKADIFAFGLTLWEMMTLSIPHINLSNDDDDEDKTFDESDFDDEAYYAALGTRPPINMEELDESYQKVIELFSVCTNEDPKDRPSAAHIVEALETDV
Casein kinase II subunit alpha (Homo sapiens), sequence (P68400 whole entry, looked up): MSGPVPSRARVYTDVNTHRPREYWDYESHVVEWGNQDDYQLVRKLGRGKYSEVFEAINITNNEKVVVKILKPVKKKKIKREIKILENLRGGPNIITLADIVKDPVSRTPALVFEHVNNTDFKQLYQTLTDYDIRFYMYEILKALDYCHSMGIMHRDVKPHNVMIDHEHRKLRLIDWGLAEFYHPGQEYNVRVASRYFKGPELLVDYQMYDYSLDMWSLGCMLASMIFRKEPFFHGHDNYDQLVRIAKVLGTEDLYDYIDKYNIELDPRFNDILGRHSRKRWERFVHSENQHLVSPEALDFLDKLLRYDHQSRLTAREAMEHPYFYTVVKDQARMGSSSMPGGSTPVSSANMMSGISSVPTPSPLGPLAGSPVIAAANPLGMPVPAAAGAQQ
Serine/threonine-protein kinase Sgk3 (Homo sapiens), sequence (Q96BR1 whole entry): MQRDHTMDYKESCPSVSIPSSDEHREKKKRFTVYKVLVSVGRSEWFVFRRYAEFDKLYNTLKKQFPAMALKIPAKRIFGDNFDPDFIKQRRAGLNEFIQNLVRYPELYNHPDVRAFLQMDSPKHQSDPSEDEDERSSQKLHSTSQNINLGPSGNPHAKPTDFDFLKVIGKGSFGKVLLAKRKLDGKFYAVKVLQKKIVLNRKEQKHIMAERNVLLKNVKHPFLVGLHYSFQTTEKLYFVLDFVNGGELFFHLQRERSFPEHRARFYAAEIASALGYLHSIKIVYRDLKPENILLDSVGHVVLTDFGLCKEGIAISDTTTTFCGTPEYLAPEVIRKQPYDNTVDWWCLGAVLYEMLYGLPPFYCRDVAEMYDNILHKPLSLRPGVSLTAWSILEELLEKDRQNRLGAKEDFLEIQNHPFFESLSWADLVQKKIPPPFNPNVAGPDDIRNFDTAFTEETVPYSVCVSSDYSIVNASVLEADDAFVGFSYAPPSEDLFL
Mitogen-activated protein kinase kinase kinase 13 (Homo sapiens), sequence (O43283 whole entry): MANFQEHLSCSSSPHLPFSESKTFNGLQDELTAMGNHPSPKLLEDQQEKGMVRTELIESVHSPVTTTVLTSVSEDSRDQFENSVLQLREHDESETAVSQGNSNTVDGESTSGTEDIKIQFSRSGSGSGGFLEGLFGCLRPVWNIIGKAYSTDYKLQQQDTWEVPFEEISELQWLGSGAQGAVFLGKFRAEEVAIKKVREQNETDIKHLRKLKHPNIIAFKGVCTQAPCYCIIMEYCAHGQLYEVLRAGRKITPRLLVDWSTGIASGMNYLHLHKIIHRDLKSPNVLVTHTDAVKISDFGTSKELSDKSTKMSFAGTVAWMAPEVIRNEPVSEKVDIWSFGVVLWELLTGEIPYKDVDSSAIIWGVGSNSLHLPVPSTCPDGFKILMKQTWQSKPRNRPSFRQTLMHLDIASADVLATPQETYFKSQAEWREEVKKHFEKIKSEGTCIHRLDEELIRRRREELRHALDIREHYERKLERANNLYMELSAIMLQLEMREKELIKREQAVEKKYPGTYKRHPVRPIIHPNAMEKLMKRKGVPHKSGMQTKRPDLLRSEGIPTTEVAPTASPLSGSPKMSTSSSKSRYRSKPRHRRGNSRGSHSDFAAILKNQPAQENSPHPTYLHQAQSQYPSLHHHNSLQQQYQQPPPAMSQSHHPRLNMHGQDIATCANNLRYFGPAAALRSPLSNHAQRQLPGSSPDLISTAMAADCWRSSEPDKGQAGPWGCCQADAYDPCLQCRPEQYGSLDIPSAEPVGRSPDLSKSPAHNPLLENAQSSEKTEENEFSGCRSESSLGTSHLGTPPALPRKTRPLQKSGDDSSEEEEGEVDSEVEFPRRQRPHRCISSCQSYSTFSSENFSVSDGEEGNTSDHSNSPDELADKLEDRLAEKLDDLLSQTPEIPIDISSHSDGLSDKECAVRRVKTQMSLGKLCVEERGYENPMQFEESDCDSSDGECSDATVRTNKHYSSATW
Tyrosine-protein kinase JAK1 (Homo sapiens), sequence (P23458 whole entry, the tested form may be a part): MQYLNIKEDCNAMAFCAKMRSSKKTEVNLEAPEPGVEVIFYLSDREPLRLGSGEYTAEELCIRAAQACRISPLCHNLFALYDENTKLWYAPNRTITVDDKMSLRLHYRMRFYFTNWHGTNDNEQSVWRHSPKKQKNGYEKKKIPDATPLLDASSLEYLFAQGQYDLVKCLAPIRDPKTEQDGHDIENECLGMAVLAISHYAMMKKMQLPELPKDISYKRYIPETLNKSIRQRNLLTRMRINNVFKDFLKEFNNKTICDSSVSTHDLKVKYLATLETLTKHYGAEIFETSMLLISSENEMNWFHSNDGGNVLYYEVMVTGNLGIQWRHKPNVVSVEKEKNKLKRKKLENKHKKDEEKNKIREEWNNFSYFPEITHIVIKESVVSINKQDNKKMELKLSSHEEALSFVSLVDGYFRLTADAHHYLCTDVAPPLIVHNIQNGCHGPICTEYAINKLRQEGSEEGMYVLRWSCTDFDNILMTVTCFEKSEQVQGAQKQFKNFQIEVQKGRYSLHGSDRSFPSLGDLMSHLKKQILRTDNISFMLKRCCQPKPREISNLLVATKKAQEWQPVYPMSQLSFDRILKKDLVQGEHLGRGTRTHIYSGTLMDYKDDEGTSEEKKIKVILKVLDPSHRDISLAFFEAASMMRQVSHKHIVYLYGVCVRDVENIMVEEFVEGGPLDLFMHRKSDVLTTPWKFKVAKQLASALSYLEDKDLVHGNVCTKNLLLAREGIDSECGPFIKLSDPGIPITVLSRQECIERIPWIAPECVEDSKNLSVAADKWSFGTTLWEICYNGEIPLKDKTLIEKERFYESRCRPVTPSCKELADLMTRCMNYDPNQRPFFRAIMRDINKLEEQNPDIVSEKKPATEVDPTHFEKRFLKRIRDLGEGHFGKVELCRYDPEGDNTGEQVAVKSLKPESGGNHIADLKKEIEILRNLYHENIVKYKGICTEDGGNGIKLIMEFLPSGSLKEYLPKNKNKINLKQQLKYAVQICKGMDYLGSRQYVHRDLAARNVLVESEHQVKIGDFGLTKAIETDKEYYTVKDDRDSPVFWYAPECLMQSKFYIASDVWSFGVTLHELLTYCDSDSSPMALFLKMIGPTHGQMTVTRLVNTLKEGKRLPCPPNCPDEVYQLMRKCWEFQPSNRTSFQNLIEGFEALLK
Serine/threonine-protein kinase 24 (Homo sapiens), sequence (Q9Y6E0 whole entry, looked up): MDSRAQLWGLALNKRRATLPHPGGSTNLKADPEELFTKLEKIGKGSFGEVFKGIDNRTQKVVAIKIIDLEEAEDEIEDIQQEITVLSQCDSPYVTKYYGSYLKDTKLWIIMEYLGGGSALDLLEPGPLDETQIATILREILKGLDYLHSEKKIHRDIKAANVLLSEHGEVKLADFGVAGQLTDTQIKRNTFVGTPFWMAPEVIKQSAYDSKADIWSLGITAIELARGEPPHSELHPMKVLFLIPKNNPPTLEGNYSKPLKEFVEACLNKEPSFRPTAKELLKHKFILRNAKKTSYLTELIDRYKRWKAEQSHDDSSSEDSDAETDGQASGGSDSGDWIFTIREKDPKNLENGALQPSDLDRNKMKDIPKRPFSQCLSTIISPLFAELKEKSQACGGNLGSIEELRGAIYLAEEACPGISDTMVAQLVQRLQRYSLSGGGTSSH

In the case of `O=C1c2ccc(Nc3ccc(F)cc3F)cc2CCc2ccc(OC[C@H](O)CO)cc21` [Skepinone-L], the Activity in test [1] was determined as 83%; in test [2] it was 100%; in test [4] it was 95%; in test [5], 88%; in test [6] it was 80%; in [7], 104%. In addition, the Activity is 100% in test [8]; 86% in [9]; 119% in [10]; 100% in test [11]; 106% in [12]; 92% in test [13]. The Activity was 97% in [14]; 97% in [15]; 113% in [16]; 97% in test [17]; 100% in [18]; 102% in test [19]. Moreover, the values for the Activity in test [21] and in test [22] were 121% and 100%, respectively. Further, the half-maximal inhibitory concentration (IC50) in [3] turned out to be 0.42 µM; in [20] it was 1.94 µM.
